Laboratory results taken from ChEMBL document CHEMBL5532740, “Optimization of a Novel DEL Hit That Binds in the Cbl-b SH2 Domain and Blocks Substrate Binding” (ACS Med Chem Lett, 2024).

Columns and labels:
[1] = target: T1, E3 ubiquitin-protein ligase CBL-B (Homo sapiens, UniProt Q13191); experiment: Inhibition of active phospho Cbl-b (unknown origin) using His-phospho ZAP70 as substrate incubated for 30 mins followed by substrate addition and measured after 30 mins by TR-FRET assay
[2] = target: T1, E3 ubiquitin-protein ligase CBL-B; experiment: Binding affinity to N-terminal Avi-tagged biotinylated human Cbl-b (40 to 426 residues) expressed in Escherichia coli by SPR assay

T1 sequence (Q13191 whole entry, the tested form may be a part): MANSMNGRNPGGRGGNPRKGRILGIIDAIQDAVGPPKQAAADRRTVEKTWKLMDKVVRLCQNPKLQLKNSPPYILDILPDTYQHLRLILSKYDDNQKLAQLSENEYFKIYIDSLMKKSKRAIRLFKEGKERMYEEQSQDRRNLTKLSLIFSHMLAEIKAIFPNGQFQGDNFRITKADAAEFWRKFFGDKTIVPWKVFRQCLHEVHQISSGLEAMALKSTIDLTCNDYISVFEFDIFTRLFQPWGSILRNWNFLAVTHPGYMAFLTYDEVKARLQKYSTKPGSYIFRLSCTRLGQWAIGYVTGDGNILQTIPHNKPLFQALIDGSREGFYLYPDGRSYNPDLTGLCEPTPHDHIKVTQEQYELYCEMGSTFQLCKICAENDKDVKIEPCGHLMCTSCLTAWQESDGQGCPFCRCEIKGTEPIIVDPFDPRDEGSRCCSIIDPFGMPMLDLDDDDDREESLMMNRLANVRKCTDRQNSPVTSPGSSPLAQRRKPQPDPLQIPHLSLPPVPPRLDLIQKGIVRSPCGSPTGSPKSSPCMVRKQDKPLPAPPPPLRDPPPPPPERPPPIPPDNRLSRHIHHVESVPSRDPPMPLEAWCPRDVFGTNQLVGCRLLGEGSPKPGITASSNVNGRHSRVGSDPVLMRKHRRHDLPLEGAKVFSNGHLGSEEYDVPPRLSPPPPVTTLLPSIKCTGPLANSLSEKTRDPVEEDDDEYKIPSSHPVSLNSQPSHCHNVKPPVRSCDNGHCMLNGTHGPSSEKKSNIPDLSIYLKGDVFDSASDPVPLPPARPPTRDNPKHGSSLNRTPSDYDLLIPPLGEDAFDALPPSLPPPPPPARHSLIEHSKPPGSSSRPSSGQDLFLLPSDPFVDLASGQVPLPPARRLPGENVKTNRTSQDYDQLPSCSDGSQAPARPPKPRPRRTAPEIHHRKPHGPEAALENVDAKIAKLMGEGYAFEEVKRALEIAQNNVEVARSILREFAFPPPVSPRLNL

Row | IC50 [1] [nM] | Kd [2] [nM] | SMILES
1 | 300 | – | CCN1C(=O)[C@H](C)N(C(=O)Cc2c(OC)ccc3c2Oc2c(ccc(OC)c2CC(=O)O)C3(C)C)[C@@H]1c1cc([N+](=O)[O-])cc(OC)c1OCC(=O)O
2 | > 20000 | – | CCOc1c(OC)cc([N+](=O)[O-])cc1[C@@H]1N(C)C(=O)[C@H](C)N1C(=O)Cc1c(OC)ccc2c1Oc1c(ccc(OC)c1C(=O)NS(C)(=O)=O)C2(C)C
3 | 340 | 280 | COc1ccc2c(c1CC(=O)O)Oc1c(ccc(OC)c1CC(=O)N1[C@H](c3cc([N+](=O)[O-])cc(OC)c3OCC(=O)O)N(C)C(=O)[C@@H]1C)C2(C)C
4 | > 20000 | 44000 | COc1ccc2c(c1CC(=O)O)Oc1c(ccc(OC)c1CC(=O)N1[C@@H](C)C(=O)N(C)[C@@H]1c1cc([N+](=O)[O-])cc(OC)c1OCC(=O)O)C2(C)C
5 | 890 | – | CCOC(=O)COc1c(OC)cc([N+](=O)[O-])cc1[C@@H]1N(C)C(=O)[C@H](C)N1C(=O)Cc1c(OC)ccc2c1Oc1c(ccc(OC)c1CC(=O)O)C2(C)C
6 | 770 | – | CC[C@H]1C(=O)N(C)[C@@H](c2cc([N+](=O)[O-])cc(OC)c2OCC(=O)O)N1C(=O)Cc1c(OC)ccc2c1Oc1c(ccc(OC)c1CC(=O)O)C2(C)C
